Results as given in ChEMBL document CHEMBL1201862, “PubChem BioAssay data set” (2004).
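Cells were grown in 96-well plates and exposed to each compound for 48 hours at five concentrations; endpoints were interpolated linearly between bracketing concentrations, or set to the highest concentration if not reached. GI50 = concentration required for 50% inhibition of growth.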 Calls of active or inactive are those of the source. Rule as the data show it: active = GI50 up to about 1.1 µM and inactive = higher.

How the values were obtained:
Test in all cases: NCI anticancer screen, dose series, 48 h
786-0 = test system: 786-0
A498 = test system: A498
A549 = test system: A549
ACHN = test system: ACHN
BT-549 = test system: BT-549
CAKI-1 = test system: CAKI-1
CCRF-CEM = test system: CCRF-CEM
COLO 205 = test system: COLO 205
DU-145 = test system: DU-145
EKVX = test system: EKVX
HCC 2998 = test system: HCC 2998
HCT-116 = test system: HCT-116
HCT-15 = test system: HCT-15
HL-60 = test system: HL-60
HOP-62 = test system: HOP-62
HOP-92 = test system: HOP-92
HT-29 = test system: HT-29
Hs-578T = test system: Hs-578T
IGROV-1 = test system: IGROV-1
K562 = test system: K562
KM12 = test system: KM12
LOX IMVI = test system: LOX IMVI
M14 = test system: M14
MCF7 = test system: MCF7
MDA-MB-231 = test system: MDA-MB-231
MDA-MB-435 = test system: MDA-MB-435
MOLT-4 = test system: MOLT-4
NCI-H226 = test system: NCI-H226
NCI-H23 = test system: NCI-H23
NCI-H460 = test system: NCI-H460
NCI-H522 = test system: NCI-H522
NCI/ADR-RES = test system: NCI/ADR-RES
OVCAR-3 = test system: OVCAR-3
OVCAR-4 = test system: OVCAR-4
OVCAR-5 = test system: OVCAR-5
OVCAR-8 = test system: OVCAR-8
PC-3 = test system: PC-3
RXF 393 = test system: RXF 393
SF-268 = test system: SF-268
SF-295 = test system: SF-295
SF-539 = test system: SF-539
SK-MEL-28 = test system: SK-MEL-28
SK-MEL-2 = test system: SK-MEL-2
SK-MEL-5 = test system: SK-MEL-5
SK-OV-3 = test system: SK-OV-3
SN12C = test system: SN12C
SNB-19 = test system: SNB-19
SR = test system: SR
SW-620 = test system: SW-620
T47D = test system: T47D
TK-10 = test system: TK-10
U-251 = test system: U-251
UACC-257 = test system: UACC-257
UACC-62 = test system: UACC-62
UO-31 = test system: UO-31
RPMI-8226 = test system: RPMI-8226
SNB-75 = test system: SNB-75

For `CN1C(NCCO)=NS(=O)(=O)c2ccccc21`, the GI50 (786-0) was > 100 µM (inactive), the GI50 (A498) was > 100 µM (inactive) and the GI50 (A549) was > 100 µM (inactive). For the same compound, the GI50 (ACHN) was > 100 µM (inactive), the GI50 (BT-549) was > 100 µM (inactive) and the GI50 (CAKI-1) was > 100 µM (inactive). The GI50 (CCRF-CEM) was > 100 µM (inactive), the GI50 (COLO 205) was > 100 µM (inactive) and the GI50 (DU-145) was > 100 µM (inactive). For the same compound, the GI50 (EKVX) was > 100 µM (inactive), the GI50 (HCC 2998) was > 100 µM (inactive) and the GI50 (HCT-116) was > 100 µM (inactive). The GI50 (HCT-15) was greater than 100 µM, the GI50 (HL-60) was > 100 µM (inactive) and the GI50 (HOP-62) was > 100 µM (inactive). The GI50 (HOP-92) was > 100 µM (inactive), the GI50 (HT-29) was > 100 µM (inactive) and the GI50 (Hs-578T) was > 100 µM (inactive). The GI50 (IGROV-1) was > 100 µM (inactive), the GI50 (K562) was > 100 µM (inactive) and the GI50 (KM12) was > 100 µM (inactive). For the same compound, the GI50 (LOX IMVI) was > 100 µM (inactive), the GI50 (M14) was > 100 µM (inactive) and the GI50 (MCF7) was > 100 µM (inactive). For the same compound, the GI50 (MDA-MB-231) was > 100 µM (inactive), the GI50 (MDA-MB-435) was > 100 µM (inactive) and the GI50 (MOLT-4) was > 100 µM (inactive). For the same compound, the GI50 (NCI-H226) was > 100 µM (inactive), the GI50 (NCI-H23) was > 100 µM (inactive) and the GI50 (NCI-H460) was > 100 µM (inactive). The GI50 (NCI-H522) was > 100 µM (inactive), the GI50 (NCI/ADR-RES) was > 100 µM (inactive) and the GI50 (OVCAR-3) was > 100 µM (inactive). The GI50 (OVCAR-4) was > 100 µM (inactive), the GI50 (OVCAR-5) was > 100 µM (inactive) and the GI50 (OVCAR-8) was > 100 µM (inactive). For the same compound, the GI50 (PC-3) was > 100 µM (inactive), the GI50 (RXF 393) was > 100 µM (inactive) and the GI50 (SF-268) was > 100 µM (inactive). The GI50 (SF-295) was > 100 µM (inactive), the GI50 (SF-539) was > 100 µM (inactive) and the GI50 (SK-MEL-28) was > 100 µM (inactive). For the same compound, the GI50 (SK-MEL-2) was > 100 µM (inactive), the GI50 (SK-MEL-5) was > 100 µM (inactive) and the GI50 (SK-OV-3) was > 100 µM (inactive). The GI50 (SN12C) was > 100 µM (inactive), the GI50 (SNB-19) was > 100 µM (inactive) and the GI50 (SR) was 8.75 µM (inactive). The GI50 (SW-620) was > 100 µM (inactive), the GI50 (T47D) was > 100 µM (inactive) and the GI50 (TK-10) was > 100 µM (inactive). For the same compound, the GI50 (U-251) was > 100 µM (inactive), the GI50 (UACC-257) was > 100 µM (inactive) and the GI50 (UACC-62) was > 100 µM (inactive). For the same compound, the GI50 (UO-31) was > 100 µM (inactive).

In the case of `COc1ccc(CCNC(=O)CCCCCO)cc1OC`, the GI50 (786-0) is reported as > 100 µM (inactive), the GI50 (A498) is reported as > 100 µM (inactive) and the GI50 (A549) is reported as > 100 µM (inactive). For the same compound, the GI50 (ACHN) was > 100 µM (inactive), the GI50 (BT-549) was > 100 µM (inactive) and the GI50 (CAKI-1) was > 100 µM (inactive). For the same compound, the GI50 (CCRF-CEM) was > 100 µM (inactive), the GI50 (COLO 205) was > 100 µM (inactive) and the GI50 (DU-145) was > 100 µM (inactive). For the same compound, the GI50 (EKVX) was > 100 µM (inactive), the GI50 (HCC 2998) was > 100 µM (inactive) and the GI50 (HCT-116) was > 100 µM (inactive). For the same compound, the GI50 (HCT-15) was greater than 100 µM, the GI50 (HL-60) was > 100 µM (inactive) and the GI50 (HOP-62) was > 100 µM (inactive). The GI50 (HOP-92) was > 100 µM (inactive), the GI50 (HT-29) was > 100 µM (inactive) and the GI50 (Hs-578T) was > 100 µM (inactive). The GI50 (IGROV-1) was > 100 µM (inactive), the GI50 (K562) was > 100 µM (inactive) and the GI50 (KM12) was > 100 µM (inactive). The GI50 (M14) was > 100 µM (inactive), the GI50 (MCF7) was > 100 µM (inactive) and the GI50 (MDA-MB-231) was > 100 µM (inactive). The GI50 (MDA-MB-435) was > 100 µM (inactive), the GI50 (MOLT-4) was > 100 µM (inactive) and the GI50 (NCI-H226) was > 100 µM (inactive). For the same compound, the GI50 (NCI-H23) was > 100 µM (inactive), the GI50 (NCI-H460) was > 100 µM (inactive) and the GI50 (NCI-H522) was > 100 µM (inactive). The GI50 (NCI/ADR-RES) was > 100 µM (inactive), the GI50 (OVCAR-3) was > 100 µM (inactive) and the GI50 (OVCAR-4) was > 100 µM (inactive). For the same compound, the GI50 (OVCAR-5) was > 100 µM (inactive), the GI50 (OVCAR-8) was > 100 µM (inactive) and the GI50 (PC-3) was > 100 µM (inactive). The GI50 (RPMI-8226) was > 100 µM (inactive), the GI50 (RXF 393) was > 100 µM (inactive) and the GI50 (SF-268) was > 100 µM (inactive). For the same compound, the GI50 (SF-295) was > 100 µM (inactive), the GI50 (SF-539) was > 100 µM (inactive) and the GI50 (SK-MEL-28) was > 100 µM (inactive). For the same compound, the GI50 (SK-MEL-2) was > 100 µM (inactive), the GI50 (SK-MEL-5) was > 100 µM (inactive) and the GI50 (SK-OV-3) was > 100 µM (inactive). For the same compound, the GI50 (SN12C) was > 100 µM (inactive), the GI50 (SNB-19) was > 100 µM (inactive) and the GI50 (SNB-75) was > 100 µM (inactive). The GI50 (SR) was > 100 µM (inactive), the GI50 (SW-620) was > 100 µM (inactive) and the GI50 (T47D) was > 100 µM (inactive). For the same compound, the GI50 (TK-10) was > 100 µM (inactive), the GI50 (U-251) was > 100 µM (inactive) and the GI50 (UACC-257) was > 100 µM (inactive). The GI50 (UACC-62) was > 100 µM (inactive) and the GI50 (UO-31) was > 100 µM (inactive).
